Assay results reported in patent publication US11072601B2, “μ-opioid receptor agonist and preparation method therefor and use thereof in field of medicine” (SHANGHAI SYNERGY PHARMACEUTICAL SCIENCES CO., LTD., priority 2017, dated 2021).

Columns and labels:
[1] = Pharmacokinetic test in rats, intravenous; type: in vivo; conditions: male, SD, rat, plasma, intravenous 1 mg/kg; for AUC: read-out: curve area (AUC); for half-life: read-out: half life (T½) (converted); for Cmax: read-out: plasma concentration (Cmax)
Description: 8-week-old male SD rats weighing 200-300 g were used as experimental animals, and LC/MS/MS method was used to determine the drug concentration in plasma at different times after the administration of the compound of Example H01, the compound of Example H04, the compound of Example H05, the compound of Example H07, the compound of Example H16, the compound of Example H17, the compound of Example H18, the compound of Example H21, and the compound of Example H24. The pharmacokinetic behavior of the compounds of the present invention in rats was studied, and its pharmacokinetic characteristics were evaluated.
A certain amount of the compounds were weighed, and dissolved in ethanol/castor oil/water=10/10/80 to form a uniform solution.
The above compounds were administered intravenously to rats at a dose of 1 mg/kg, and 0.2 ml of blood was collected from the orbit at 0.083, 0.25, 0.5, 1.0, 2.0, 4.0, 6.0, 8.0, 12.0, 24.0 hours before and after administration, and placed in an anticoagulant tube, the plasma was separated by centrifugation at 6,000 rpm for 10 minutes at 4° C., and stored at −80° C.
50 μL of plasma was taken at different times, 150 μL of acetonitrile solution containing internal standard tolbutamide (200 ng/mL) was added, the system was mixed and shaked for 5 minutes, 12000 rpm, centrifuged for 5 minutes, 100 μL of supernatant was removed, and then mixed with 200 μL of water, then the sample was loaded for analysis. The internal standard tolbutamide solid (Aladdin, T129578) powder was dissolved in DMSO to prepare into a 1 mg/mL stock solution. The stock solution was diluted with 100% acetonitrile to obtain a solution of 200 ng/mL as a protein precipitator.
The liquid chromatography system was an LC-20AD UFLC high performance liquid chromatography system (Shimadzu, LC-20AD). The mass spectrometry system was an AB Sciex API4000 triple quadrupole mass spectrometer equipped with an electrospray ionization source (ESI) (Applied Biosystems, Canada). The software used to control the liquid-mass coanalyzer and quantitative analysis was Analyst 1.6 (Applied Biosystems, Canada), and the pharmacokinetic parameters were analyzed using WinNonlin (version 5.2, Pharsight, Mountain View, Calif.) non-compartment model.
Liquid chromatographic separation was performed using AQ-C18 column (50×2.1 mm, internal diameter of […]). The column temperature was maintained at room temperature.
The compound to be tested was dissolved in DMSO to prepare a stock solution with a concentration of 1 mg/mL, and diluted with 70% acetonitrile to obtain a series of standard working solutions with concentrations of 30, 10, 3, 1, 0.3, 0.1, 0.03, and 0.01. μg/mL, and a series of standard quality control solutions (24, 8 and 0.03 μg/mL). 5 μL of standard solution and 45 μL of blank plasma matrix were mixed uniformity to obtain standard solutions (3000, 1000, 300, 100, 30, 10, 3, and 1 ng/mL) and quality control standards (plasma samples: 2400, 800, 80, and 3 ng/mL) at each concentration point of the standard curve.

[2] = tested on: rat surgical incision injury model; assay: Rat surgical incision injury model, von Frey paw withdrawal threshold; type: in vivo, SD rats; conditions: rats, intravenous 0.3 mg/kg
Description: 8-week-old male SD rats weighing 200 g-300 g were used as experimental animals to determine the effect of the compound of Example H02, the compound of Example H04, the compound of Example H10, the compound of Example H16, the compound of Example H17, the compound of Example H18, the compound of Example H21 and the compound of Example H24 on surgical pain in rats after intravenous administration. The analgesic effect of the compounds was discussed.
A certain amount of the compounds or TRV130 (MCE, 15150) was weighed, and dissolved in ethanol/castor oil/water=10/10/80 as a clear and transparent solution.
Three days after the rats were acclimatized to the experimental environment, the preoperative base value was determined, and followed by the surgical pain operation described below, about 24 hours after the surgery, the basic value was measured before administration on all animals, and mechanically hypersensitive animals (the paw withdrawal threshold (PWT) was less than 5 g) was randomly assigned to each administration group according to PWT. The pain threshold was determined 30 minutes and 60 minutes after intravenous administration of the positive drug TRV130 or each compound of the present invention (at a dose of 0.3 mg/kg).
The surgical procedure was performed aseptically, and the surgical instruments (scissors, tweezers, scalpels, surgical cotton and sutures) were sterilized before surgery. The animals were anesthetized with sodium pentobarbital (50 mg/kg, injected intraperitoneally), and the toes of the animals were squeezed to confirm that the animals were completely anesthetized before surgery. From the position of 0.5 cm away from the heel, an incision about 1 cm was made in the longitudinal direction of the toe. After cutting the skin, the musculus flexor digitorum brevis was raised and a blunt injury was caused longitudinally. After pressing to stop bleeding, the wound was sutured. When the animal was completely awake (free to move), the animal was put back into the cage (the reference of the construction of surgical pain model: Timothy J. Brennan, Erik P. Vandermeulen, G. F. Gebhart. Characterization of a rat model of incisional pain. Pain, 64(1996):493-501).
An up-down method was used for the determination of pain sensitivity. The mechanical pain results were expressed as animal paw withdrawal response threshold (PWT). The rat was placed separately in a plexiglass box with a mesh at the bottom of the box to ensure that the rat's feet could be tested. The rat was acclimatized for 15 minutes before the test, and after the acclimatization, the test fiber (von frey fiber, West coast) was used to test in the middle part of the hind foot of the rat. The test fibers included 8 test strengths: 3.61 (0.4 g), 3.84 (0.6 g), 4.08 (1 g), 4.31 (2 g), 4.56 (4 g), 4.74 (6 g), 4.93 (8 g), and 5.18 (15 g). During the test, the test fiber was pressed vertically against the skin and a force was applied to bend the fiber for 6-8 seconds, at an interval of 5 seconds between each test. During the test, the animal's rapid withdrawal was recorded as a pain response. When the test fiber left the animal's skin, the animal's withdrawal was also recorded as a pain response. Starting from 2 g, depending on whether the rats had any pain response, the test was changed into the next test intensity or the previous test intensity. A series of responses of the rats to different test intensities were recorded. […] Wherein, Xf was the logarithmic value of von Frey fiber used in the last test, and K value was the animal withdrawal reaction mode (recorded during the test), which was the value obtained after looking up the table according to the obtained sequence of “X” and “O”, δ=Mean of logarithmic difference between von Frey fibers used in the test.

| SMILES | AUC [1] [ng·h/mL] | half-life [1] [h] | Cmax [1] [ng/mL] | 50% PWT, 30 min after administration [2] [g] | 50% PWT, 60 min after administration [2] [g] |
| --- | --- | --- | --- | --- | --- |
| Cc1c(Cl)cccc1CNCCC1(c2ccccn2)CCOC2(CCCC2)C1 (stereo not drawn) [Example H04, (3-chloro-2-methylbenzyl)-[2-(9-(pyridin-2-yl)-6-oxaspiro[4.5]decan-9-yl)ethyl]amine] | 494 ± 34 | 2.92 ± 0.02 | 378 ± 17.5 | 11.72 ± 0.56 | 8.29 ± 1.06 |
| FC(F)Oc1ccccc1CNCCC1(c2ccccn2)CCOC2(CCCC2)C1 (stereo not drawn) [Example H16, (2-difluoromethoxybenzyl)-[2-(9-(pyridin-2-yl)-6-oxaspiro[4.5]decan-9-yl)ethyl]amine] | 1190 ± 54 | 5.3 ± 0.02 | 820 ± 37.5 | 13.72 ± 0.56 | 10.29 ± 1.06 |
| FC(F)(F)Oc1ccc(Cl)cc1CNCCC1(c2ccccn2)CCOC2(CCCC2)C1 (stereo not drawn) [Example H17, (5-chloro-2-trifluoromethoxybenzyl)-[2-(9-(pyridin-2-yl)-6-oxaspiro[4.5]decan-9-yl)ethyl]amine] | 482 ± 31.8 | 1.45 ± 0.15 | 388 ± 23.3 | 8.85 ± 1.59 | 7.91 ± 1.43 |
| FC(F)Oc1ccsc1CNCCC1(c2ccccn2)CCOC2(CCCC2)C1 (stereo not drawn) [Example H18, ((3-difluoromethoxythiophen-2-yl)methyl)-[2-(9-(pyridin-2-yl)-6-oxaspiro[4.5]decan-9-yl)ethyl]a mine] | 582 ± 11.8 | 3.45 ± 0.55 | 483 ± 23.3 | 7.85 ± 0.54 | 6.91 ± 0.33 |
| Fc1ccc(C2(CCNCc3ccccc3OC(F)(F)F)CCOC3(CCCC3)C2)nc1 (stereo not drawn) [Example H21, {2-[9-(5-fluoro-pyridin-2-yl)-6-oxa-spiro[4.5]decan-9-yl]-ethyl}-(2-(trifluoromethoxy)-phenmethyl)-amine] | 382 ± 10.8 | 2.05 ± 0.25 | 283 ± 13.3 | 10.72 ± 2.56 | 8.29 ± 1.06 |
| CNc1ccsc1C(=O)NCCC1(c2ccccn2)CCOC2(CCCC2)C1 (stereo not drawn) [Example H24, 3-methylamino-thiophene-2-carboxylic acid [2-(9-pyridin-2-yl-6-oxa-spiro[4.5]decan-9-yl)-ethyl]-amide] | 682 ± 21 | 3.05 ± 0.15 | 583 ± 23.3 | 11.32 ± 2.35 | 7.29 ± 1.23 |
